{"source": "patent US10458996B1", "about": "“Methods for determining clinical response to TNF-alpha and/or JAK inhibitors in subjects with inflammatory diseases” (Beth Israel Deaconess Medical Center, Inc., priority 2016, dated 2019)", "key": {"[1]": {"system": "patients with UC", "settings": "cited from earlier work"}, "[2]": {"system": "biopsy samples from patients with IBD", "experiment": "Cytokine profiles of patient biopsy cultures in response to treatment with various agents (Example 2)", "type": "cell-based, human", "experimental": "(§1) From each patient, intestinal mucosal biopsies were minced into several pieces and distributed in 8 wells of a 96-well plate in 250 μl of Dulbecco's Modified Eagle Medium (DMEM) supplemented with 10% FBS and antibiotic-antimycotic (Life Technologies, CA). Half of the cultures were treated with infliximab (REMICADE®; 0.5 mg/ml; Janssen Biotech, Inc, NJ) and the plate was incubated at 37° C. in a humidified chamber of 95% O2/5% CO2 for 18 hours. Culture supernatants were collected, filtered and stored at −80° C. […] Signal detection and analysis was performed by MAGPIX® (Luminex Corporation, TX).\n[…] with 0.5 mg/ml infliximab (an anti-TNFα antibody; therapeutic agent), 100 μM tofacitinib (a Janus kinase (JAK) inhibitor) and an experimental drug (at 10 μM concentration) in accordance with the protocol described above. Following treatment, biopsy samples were obtained and analyzed for cytokine profiles using […].\nAdditional similar experiments were conducted for different patients using the same or different therapeutic agents, and the results are shown in FIG. 5D-5H."}, "[3]": {"system": "patients with moderate-to-severe CD", "settings": "week 24 of intervention; cited from earlier work"}, "[4]": {"settings": "cited from earlier work"}, "[5]": {"system": "patients with IBD", "experiment": "Clinical response to anti-TNFα therapy in study patients (review of hospital records)", "type": "in vivo, human", "experimental": "Upon study completion, a total of 28 patients ([…]) with IBD, 82% with CD, had received anti-TNFα therapy. Specifically, 18 patients were treated with infliximab, 8 patients with adalimumab, 1 patient with golimumab and 1 patient with cetrolizumab pegol. The study participants' hospital electronic records were reviewed by physicians blinded to the results of the ex vivo testing and clinical responses to treatment with anti-TNFα were assessed.\nPatients belonging to cohort 1 (N=6) came into the study as anti-TFNalpha naïve and had the shorter follow-up.\n(a) need for hospitalization or surgical intervention for IBD-related problems (N=4);\n(b) dose or frequency escalation of anti-TNFα treatment or switching to another anti-TNFα regimen (N=4);\n(c) adding corticosteroids or an immunomodulator to the therapeutic scheme (N=3);\n(d) treatment with emerging IBD drugs such as vedolizumab, tofacitinib, or ustekinumab (N=6)."}, "[6]": {"system": "intestinal mucosal explants from patients with IBD", "experiment": "Ex vivo infliximab treatment of intestinal mucosal explant cultures, cytokines in supernatant by multiplex ELISA", "type": "cell-based, human", "settings": "infliximab 0.5 mg/ml, 18 hours", "experimental": "During a hospital visit for an endoscopic procedure that was part of their standard care, patients were asked by the study coordinator whether they were willing to participate in this research study and sign the informed consent approved by the Institution's Committee on Clinical Investigations. From each patient, four extra punch biopsies were taken from the macroscopically most diseased areas of the inflamed intestinal mucosa, put on ice and transferred to the lab within 30 minutes of their harvesting.\nas §1\nWithin each patient, differences in cytokine release between control and infliximab-treated cultures (n=4 per group) were assessed by the Mann-Whitney test. Cytokine changes in patients with CD (N=29) or UC (N=16) were expressed as mean±SEM and evaluated by unpaired t-test followed by Bonferroni correction for multiple comparisons. In rate or percentage comparisons a chi-square test was applied. The non-parametric Mann-Whitney test was chosen for the rest of two-group analyses. The STATView 2.0 software (SAS Institute) was used for all tests with the exception of the Receiver Operating Characteristic (ROC) analysis for which STATA13 was used.\nThe impact of anti-TNFα (infliximab) treatment was investigated in vitro using mucosal biopsy cultures derived from the most inflamed areas of the terminal ileum or colon of a total of 45 patients with IBD, 64% with CD and 36% with UC. At the time the biopsies were taken, 32 patients (71%) were receiving medications for their IBD and 16 of them were under an anti-TNFα regimen. The assay read-out consisted of a panel of 15 cytokines, chemokines and inflammatory mediators, and its design was based on previously reported biomarkers for CD and UC, on biomarkers that correlated with response to anti-TNFα treatment and on plausible TNF-alpha related biological mechanisms (Tracey et al., Rismo et al., Iskandar et al., Transl Res 159:313-325, 2012; Umehara et al., Hepatogastroenterology 53:879-882, 2006). For each patient and each cytokine, data were generated for the two conditions (plus/minus infliximab) using the median of 4 independent cultures."}, "[7]": {"settings": "Clinical Response No (n = 17), some values below detection limit or missing"}}, "data": [{"substance": "infliximab", "values": [{"measurement": "clinical response rates during induction", "setting": "[1]; 10 mg/kg, week 8", "result": 61.5, "unit": "%"}, {"measurement": "clinical response rates, maintenance therapy", "setting": "[1]; week 53", "result": 19.8, "unit": "%"}, {"measurement": "biomarkers with reductions in level achieving statistical significance", "setting": "[2]; 0.5 mg/ml, cytokine responder group compared to non-responder group (FIG. 5A)", "result": "IL-12p40, IL-12p70, IL-13, IL-17A, IL-2, IL-4, IL-5, and IL-7"}, {"measurement": "TNFα levels", "setting": "[2]; 0.5 mg/ml, responder and non-responder groups (FIG. 5A)", "result": "significantly attenuated in both groups"}, {"measurement": "ex vivo response of patient", "setting": "[2]; patient ID 13-284 (FIG. 5D)", "result": "ex vivo responder"}, {"measurement": "changes in cytokine profile", "setting": "[2]; patient ID 13-284 (FIG. 5D), in addition to the direct target TNFα", "result": "three cytokine expression down-regulation"}, {"measurement": "Mucosal healing rates", "setting": "[3]", "result": 30.1, "unit": "%"}, {"measurement": "patients with undetectable infliximab serum levels", "setting": "[4]; 483 patients with CD during maintenance therapy", "result": 23, "unit": "%"}, {"measurement": "risk to loose response in the presence of ADA", "setting": "[4]; metanalysis, 95% CI:2-4.9", "result": 3.2, "unit": "fold"}, {"measurement": "patients positive for anti-drug antibodies (ADA)", "setting": "[4]; of the CD patients with undetectable infliximab serum levels", "result": 72, "unit": "%"}, {"measurement": "patients developing anti-drug antibodies (ADA)", "setting": "[4]; secondary loss of response", "result": 10, "unit": "%"}, {"measurement": "clinical response rate", "setting": "[5]; patients positive in the ex vivo treatment (ex vivo responders, 10/12)", "result": 83, "unit": "%"}, {"measurement": "clinical response rate", "setting": "[5]; patients with negative ex vivo results (ex vivo non-responders, 1/16)", "result": 6, "unit": "%"}, {"measurement": "GM-CSF inhibition by ex vivo infliximab treatment, % patients", "setting": "[6]; Clinical Response No (n = 17)", "result": 5.9, "unit": "%"}, {"measurement": "GM-CSF inhibition by ex vivo infliximab treatment, N patients", "setting": "[6]; Clinical Response No (n = 17)", "result": 1}, {"measurement": "IFNγ inhibition by ex vivo infliximab treatment, % patients", "setting": "[6]; Clinical Response No (n = 17)", "result": 23.5, "unit": "%"}, {"measurement": "IFNγ inhibition by ex vivo infliximab treatment, N patients", "setting": "[6]; Clinical Response No (n = 17)", "result": 4}, {"measurement": "IL-1β inhibition by ex vivo infliximab treatment, % patients", "setting": "[6]; Clinical Response No (n = 17)", "result": 11.8, "unit": "%"}, {"measurement": "IL-1β inhibition by ex vivo infliximab treatment, N patients", "setting": "[6]; Clinical Response No (n = 17)", "result": 2}, {"measurement": "IL-2 inhibition by ex vivo infliximab treatment, % patients", "setting": "[6]; Clinical Response No (n = 17)", "result": 11.8, "unit": "%"}, {"measurement": "IL-2 inhibition by ex vivo infliximab treatment, N patients", "setting": "[6]; Clinical Response No (n = 17)", "result": 2}, {"measurement": "IL-4 inhibition by ex vivo infliximab treatment, % patients", "setting": "[6]; Clinical Response No (n = 17)", "result": 5.9, "unit": "%"}, {"measurement": "IL-4 inhibition by ex vivo infliximab treatment, N patients", "setting": "[6]; Clinical Response No (n = 17)", "result": 1}, {"measurement": "IL-5 inhibition by ex vivo infliximab treatment, N patients", "setting": "[6]; Clinical Response No (n = 17)", "result": 1}, {"measurement": "IL-6 inhibition by ex vivo infliximab treatment, % patients", "setting": "[6]; Clinical Response No (n = 17)", "result": 5.9, "unit": "%"}, {"measurement": "IL-6 inhibition by ex vivo infliximab treatment, N patients", "setting": "[6]; Clinical Response No (n = 17)", "result": 1}, {"measurement": "IL-7 inhibition by ex vivo infliximab treatment, % patients", "setting": "[6]; Clinical Response No (n = 17)", "result": 0.0, "unit": "%"}, {"measurement": "IL-7 inhibition by ex vivo infliximab treatment, N patients", "setting": "[6]; Clinical Response No (n = 17)", "result": 0}, {"measurement": "IL-8 inhibition by ex vivo infliximab treatment, % patients", "setting": "[6]; Clinical Response No (n = 17)", "result": 5.9, "unit": "%"}, {"measurement": "IL-8 inhibition by ex vivo infliximab treatment, N patients", "setting": "[6]; Clinical Response No (n = 17)", "result": 1}, {"measurement": "IL-10 inhibition by ex vivo infliximab treatment, % patients", "setting": "[6]; Clinical Response No (n = 17)", "result": 11.8, "unit": "%"}, {"measurement": "IL-10 inhibition by ex vivo infliximab treatment, N patients", "setting": "[6]; Clinical Response No (n = 17)", "result": 2}, {"measurement": "IL-12p40 inhibition by ex vivo infliximab treatment, N patients", "setting": "[6]; Clinical Response No (n = 17)", "result": 3}, {"measurement": "IL-12p70 inhibition by ex vivo infliximab treatment, % patients", "setting": "[6]; Clinical Response No (n = 17)", "result": 17.6, "unit": "%"}, {"measurement": "IL-12p70 inhibition by ex vivo infliximab treatment, N patients", "setting": "[6]; Clinical Response No (n = 17)", "result": 3}, {"measurement": "IL-13 inhibition by ex vivo infliximab treatment, N patients", "setting": "[6]; Clinical Response No (n = 17)", "result": 0}, {"measurement": "IL-17A inhibition by ex vivo infliximab treatment, N patients", "setting": "[6]; Clinical Response No (n = 17)", "result": 0}, {"measurement": "MCP-1 inhibition by ex vivo infliximab treatment, % patients", "setting": "[6]; Clinical Response No (n = 17)", "result": 5.9, "unit": "%"}, {"measurement": "MCP-1 inhibition by ex vivo infliximab treatment, N patients", "setting": "[6]; Clinical Response No (n = 17)", "result": 1}, {"measurement": "IL-5 inhibition by ex vivo infliximab treatment, % patients", "setting": "[6]; [7]", "result": 7.7, "unit": "%"}, {"measurement": "IL-12p40 inhibition by ex vivo infliximab treatment, % patients", "setting": "[6]; [7]", "result": "20.0^∧ %"}, {"measurement": "IL-13 inhibition by ex vivo infliximab treatment, % patients", "setting": "[6]; [7]", "result": "0.0^∧ %"}, {"measurement": "IL-17A inhibition by ex vivo infliximab treatment, % patients", "setting": "[6]; [7]", "result": "0.0^∧ %"}, {"measurement": "GM-CSF inhibition by ex vivo infliximab treatment, % patients", "setting": "[6]; Clinical Response Yes (n = 11)", "result": 9.1, "unit": "%"}]}]}
